The GI50 is the concentration at which growth is held to half of that of the control.

Read-outs that look alike come from different tables or passages of the source.

The text below walks through data of patent publication US8252832B2, “Kinesin inhibitors as cancer therapeutics” (Novartis AG, priority 2007, dated 2012).

For series [1], the system named is cell lines derived from hematological malignancies. Put plainly: CellTiter-Glo, hematologic malignancy panel, mean of panel. In kind it is cell-based. From the text:
Identification of tumor types that are the most sensitive to the KSP inhibitors of the present invention can be accomplished using an unbiased approach that uses several cell-based assays. The assays chosen were as follows: • CellTiter-Glo®. This is an assay designed to measure ATP concentration in a cell culture, and can be correlated to cell number. Briefly CellTiter-Glo® (Promega Corporation) is a homogeneous method using the single CellTiter-Glo® reagent to detect ATP wherein ATP in the assay drives the activity of a thermostable luciferase to create a luminescent signal which can then be measured and correlated with the number of viable cells. Briefly, for adherent cells, 1,000 to 5,000 cells/well were plated in 96-well plates (100 μl/well) and let to adhere for 24 hours before being treated with drug. For non-adherent cells, 1,000 to 10,000 cells/well were plated in 96-well plates (100 μl/well) and immediately treated with drug. Drug dilutions were prepared in DMSO at 1000 times the final concentration. These dilutions were then diluted 1/100 in growth media before being added to the cells (11 μl/well) to achieve the desired final concentration. […] The enzymatic reaction is coupled to a chemical reaction that uses a tetrazolium salt to form a formazan that is red and can be detected by its absorbance at 490 nm. […]
On the technique in general: In ATP-based viability assays light output follows the ATP content of the culture.

The nature of series [2]: MV4; 11-luc disseminated disease model, host response. As to conditions: q4d × 3, i.v. In kind it is in vivo, mouse. On the procedure: The efficacy study in the disseminated disease model was performed using immunodeficient NOD-SCID female mice approximately 7-8 weeks old (Jackson Laboratories, Bar Harbor, Me.). […] Routine animal care and assurance of welfare were as described above. […] Doses were adjusted to each animal's body weight. […] Approximately 10 minutes prior to imaging, mice were injected i.p. with 150 mg/kg luciferin (Xenogen Corporation, Alameda, Calif.), followed by anesthetization with isoflurane. Photon emission was measured using a charge coupled device camera in the IVIS imaging system (Xenogen Corporation). Briefly, a gray-scale image of the mice was captured, followed by an overlay of a bioluminescence map representing the spatial distribution of photons detected from cleaved luciferin in the cancer cells expressing luciferase. Signal intensity was quantified using a customized version of the IGOR Pro version 4.09A Software (WaveMetrics, Inc., Lake Oswego, Oreg.) called Living Image version 2.50.2 (Xenogen). The sum of all detected photon counts from the dorsal+ventral views was determined. Bioluminescence of cancer cells in the animals was measured by imaging on designated days until the first mice developed hind limb paralysis due to disease burden, the main end point for when to humanely euthanize mice. The day of euthanasia for each mouse was recorded and the remaining percentage of mice surviving was plotted over time (Kaplan-Meier survival analysis). P values were calculated using the log-rank test (GraphPad Prism 4.0 software) to assess differences between treated and control groups (p<0.05 was considered significant). […] Data analysis was performed as described above.

On to `CC(C)(C)[C@H](c1nc(-c2cc(F)ccc2F)cn1Cc1ccccc1)N(CC[C@H](N)CF)C(=O)CO` [Compound IIa], for which the GI50 is 0.339 nM in series [1] (GI50 in nM, read-out: Log(GI50), arithmetic mean of panel (converted)) and 0.34 nM in series [1] (read-out: GI50, geometric mean of panel). The “% Max. Δ body weight, (Day)” value in series [2] (0.25 mg/kg, D5) is 5.6 ± 1.3%; in series [2] (0.5 mg/kg, D10), −2.6 ± 2.3%; in series [2] (1 mg/kg, D10), −4.2 ± 1.7%. The “Max. Δ body weight (g) (Day)” value was 1.1 ± 0.44 g in series [2] (0.25 mg/kg, D5); -0.57 ± 0.45 g in series [2] (0.5 mg/kg, D10); -0.77 ± 0.32 g in series [2] (1 mg/kg, D10).
